The text below walks through data of patent publication US20060025483A1, “(-)-Hydroxycitric acid for protection against soft tissue and arterial calcification” (priority 2004, published 2006).

For test [1] the following is noted: treated rats; cited from earlier work.
Another test concerns ACE system. Nature of the test: response of SBP to losartan challenge. The format is in vivo, Spontaneously hypertensive rats (SHR). As to conditions: at 6 hours; SHR fed 100 mg HCA per day as new KMgHCA. From the text: Many factors can positively influence blood pressure, e.g., diuretics, antioxidants, regulators of sympathetic/parasympathetic tone, compounds that improve insulin sensitivity and so forth. Therefore, losartan, an angiotensin-2 receptor blocker, was utilized to discover whether the ACE system was involved in the results discussed in Example 1.
(§1) Spontaneously hypertensive rats (SHR) were placed on a diet composed of regular rat chow (60% w/w) and table sugar (40% w/w). This diet reliably elevates blood pressure in this animal model. One group received 100 mg HCA per day in the form of a new potassium-magnesium hydroxycitrate (different from that used in Example 1) via an added 5 g HCA per kg of food mix. Systolic blood pressure and body weight were tested as in Example 1 on a weekly basis.
When losartan was injected, the SBP of both groups decreased. At 6 hours, the SBP were essentially the same. […] Thus, HCA appears to decrease angiotensin-2 in rats and to lower elevated SBP. Although insulin regulation likely is a factor in the blood pressure modulating effect of HCA, this evidence argues that inhibition of ACE is also important. […]

Test [2] is described as follows: body weight in SHR on rat chow / table sugar diet. The format is in vivo, Spontaneously hypertensive rats (SHR). The following applies: 100 mg HCA per day in food; over three weeks. Here is the method: as §1
A further test relates to TNF-α. Nature of the test: TNF-α, rats on 30% fat / simple sugar diet. The format is in vivo. As to conditions: eight weeks. The text has this: To test the properties of HCA in various forms under conditions similar to those found in human clinical trials, the inventor arranged for rats to be fed a diet in which 30% of the calories were obtained from fat under standard conditions, with a further approximately 20% of the calories being supplied as simple sugars. Such a dietary combination of fat and simple sugars is noted as promoting a variety of metabolic imbalances and dysfunctions. The rats were intubated twice daily with one of five HCA salts or placebo. On weekends, the HCA was added to the food at an approprate dosage. The amount of HCA in each arm of 8 animals was based on the minimum dosage which had been found effective in the form of the pure trisodium salt of HCA in tests by Hoffmann-La Roche in animals ingesting a 70% glucose diet, i.e., 0.33 mmoles/kg body weight HCA given twice per day. The HCA salts used were these: KCaHCA=a mixed potassium and calcium or double metal HCA salt commercially marketed as being entirely water soluble and of relatively high purity; KHCA=a relatively clean commercial potassium salt of HCA with a good mineral ligand attachment supplying 4467 mg potassium/100 grams of material; KMgHCA=three different dosage levels of an experimental potassium and magnesium salt with special characteristics, but suspected of being relatively unstable when exposed to stomach acid. […]

The subject of test [3] is systolic blood pressure. Nature of the test: systolic blood pressure (SBP) by tail plethysmography, rats on 30% fat / sucrose diet. Format: in vivo, Sprague-Dawley Rats. The following applies: for lowering of SBP: end of 8 weeks. The text has this: (§2) A known effect of ACE inhibitors is a reduction in elevated systolic blood pressure. To test this, the following protocol was employed: Sprague-Dawley Rats (SD), approximately 8 weeks of age were obtained. Six groups of eight male SD received the same standard rat chow manufactured to specifications. The special diets derived 30% of calories from fats (one half from lard and one half from corn oil), 50% from carbohydrates, and 20% from proteins. Twenty percent of dietary calories was derived from sucrose and the preponderance of the remaining carbohydrate calories was derived from dextrin. During weekdays (M-F), each group was gavaged twice daily with a solution containing a commercial source of potassium hydroxycitrate (KHCA), a commercial source of potassium-calcium hydroxycitrate (KCaHCA), or a pre-commercial non-salt source of potassium-magnesium hydroxycitrate (KMgHCA, listed as KMgHCA L-Low, M-Intermediate or H-High depending upon the dose). Over the weekends (S-S), a similar quantity of the weekday daily dose was added to twenty grams of food, that is, an amount of food estimated to be close to the daily intake of the animals. At initiation of study and four weeks, and eight weeks later, bloods were drawn from all SD for routine blood chemistries. Body weight (BW) was measured weekly and systolic blood pressure (SBP) was measured every two weeks.
The HCA dosages in the arms varied. The dosage used in the KHCA arm was extrapolated from the recommended 1,500 mg HCA per day for humans consuming a normal diet (i.e., ≧30% calories derived from fats) advocated by a commercial seller of KHCA and claimed to have produced acceptable clinical results. The approximate equivalent for the rat model is 35.4 mg HCA per day, which we increased to 38.4 mg HCA per day for convenience in employing a 48% HCA potassium salt and to remain safely on the high side in practice. For the sake of comparison, a commercial KCaHCA salt (60% HCA) was chosen and delivered at an HCA dosage level of 48 mg per day, which slightly exceeded the lowest dosage of HCA found to be efficacious for inhibition of weight gain in rats in the early pharmaceutical trials (45.4 mg/day) using pure trisodium hydroxycitrate and a very low fat diet. The design thus utilized a realistic diet with rough equivalents of the HCA dosages claimed to be effective in both the human and rat models.
The experimental KMgHCA dosings varied considerably from that of the other two salts. […] As a result, the recalculated HCA doses for the experimental compound were a low dose (KMgHCA L) of 14 mg, an intermediate dose (KMgHCA M) of 28 mg and a high dose (KMgHCA H) of 84 mg per day. The difficulty in calculating the HCA content in this case is not unique inasmuch as there is as of yet no universally accepted method for calculating the HCA content of the various salts. Again, preparations yielded the equivalent of 48 mg HCA per day from KCaHCA and 38.4 mg HCA per day from KHCA.
(§3) Systolic Blood Pressure (SBP): SBP was estimated by tail plethysmography in unanesthetized rats after a brief warming period. Readings were taken approximately one minute apart. To be accepted, SBP measurements had to be virtually stable for a minimum of three consecutive readings.
(§4) Statistical Analyses: Results are presented as mean±SEM. Many statistics were performed by one-way analysis of variance (ANOVA). SBP and BW were examined by two-way analyses of variance (one factor being dietary group and the second factor being time of examination). Where a significant effect of diet was detected by ANOVA (p<0.05), the Dunnett t test was used to establish which differences between means reached statistical significance (p<0.05). If a Student's t test was employed, this is noted.

Test [4] in a line: glucose tolerance test with 0.1 unit regular insulin injected along with glucose. The format is in vivo, Spontaneously hypertensive rats (SHR). As to conditions: at 7.5 minutes; 100 mg HCA per day in food. As to the method:
This was viewed as likely positive in that rats gain weight steadily as long as they remain in good health and the SHR at middle age, as used here, lives a relatively short life and its health deteriorates as its blood pressure rises. […] A glucose tolerance test was administered in which 0.1 unit of regular insulin was injected along with glucose. […] This finding indicates increased insulin sensitivity. (FIG. 6)

Test [5] deals with systolic blood pressure. Nature of the test: SBP in SHR on rat chow / table sugar diet. The format is in vivo, Spontaneously hypertensive rats (SHR). As to conditions: 100 mg HCA per day in food; over three weeks. As to the method:
as §3, §1

A further test relates to C-reactive protein. Nature of the test: serum C-reactive protein, rats on 30% fat / simple sugar diet. Format: in vivo. The arrangement: key to CRP Modulation: ** = significant. As to conditions: for CRP Modulation: 4 wks; for Δ OD units after 4 wks: serum CRP, 1 unit equals 50 picograms/mL. From the text: To test the properties of HCA in various forms under conditions similar to those found in human clinical trials, the inventor arranged for rats to be fed a diet in which 30% of the calories were obtained from fat under standard conditions, with a further approximately 20% of the calories being supplied as simple sugars. Such a dietary combination of fat and simple sugars is noted as promoting a variety of metabolic imbalances and dysfunctions. The rats were intubated twice daily with one of five HCA salts or placebo. On weekends, the HCA was added to the food at an approprate dosage. The amount of HCA in each arm of 8 animals was based on the minimum dosage which had been found effective in the form of the pure trisodium salt of HCA in tests by Hoffmann-La Roche in animals ingesting a 70% glucose diet, i.e., 0.33 mmoles/kg body weight HCA given twice per day. The HCA salts used were these: KCaHCA=a mixed potassium and calcium or double metal HCA salt commercially marketed as being entirely water soluble and of relatively high purity; KHCA=a relatively clean commercial potassium salt of HCA with a good mineral ligand attachment supplying 4467 mg potassium/100 grams of material; KMgHCA=three different dosage levels of an experimental potassium and magnesium salt with special characteristics, but suspected of being relatively unstable when exposed to stomach acid. The KCaHCA and KHCA salts were 60% HCA delivered at the rate of approximately 76 mg/day. The KMgHCA salts were delivered at the rate of 76 mg/day (r), 38 mg/day (l) and 228 mg/day (h), but due to initial miscalculations of the water of crystallization, this salt was only 45% HCA rather than 60%. The proper dosage for the KMgHCA(r) should have been 100 mg/day; the half dose (I) should have been 50 mg/day, and the triple dose (h) should have been 300 mg/day to match the commercial salts.
Tests were performed for C-reactive protein. Data was obtained for the animals at start and then at week 4 based on serum. Optical Density (OD) readings in the test kit used were 1 unit equals 50 picograms/mL. The delta changes over the 4 weeks for each arm vs control are shown.

Another test has as its system insulin. Nature of the test: circulating insulin concentrations. Format: in vivo, Sprague-Dawley Rats.
Source text: as §2, §4

`O=C(O)CC(O)(C(=O)O)C(O)C(=O)O` (single isomer, unassigned; (-)) [HCA, (−)-Hydroxycitric acid]: in [1], the “plasma levels of glucose, insulin, or free fatty acids relative to controls” value is “no significant differences in plasma levels of glucose, insulin, or free fatty acids”. In the test with ACE system, the “decrease in SBP after losartan injection” value is −21.7±7.0.
Take `O=C([O-])CC(O)(C(=O)[O-])C(O)C(=O)[O-].[K+].[Mg+2]` (centres unmarked) [KMgHCA, potassium-magnesium hydroxycitrate]: in [2], the body weight result is recorded as “trend for an increase in body weight”. The “TNF-α, simple t test versus control” value in the test on TNF-α (intermediate dose) and with TNF-α (low dose) was “significance” in each case. Besides, the “SBP compared to control” value is recorded as “below the threshold for effect” in the test with systolic blood pressure [3] (course of study, low dose 14 mg HCA per day); “significant decreases in SBP compared to control” with systolic blood pressure [3] (end of eight weeks, high dose 84 mg HCA per day); “significant decreases in SBP compared to control” in the test on systolic blood pressure [3] (end of eight weeks, intermediate dose 28 mg HCA per day). The “lowering of SBP” value in the test on systolic blood pressure [3] (high dose 84 mg HCA per day) and in the test on systolic blood pressure [3] (intermediate dose 28 mg HCA per day) was “over 10 mm Hg” throughout. Further, the “rise in glucose appearance in bloodstream” value in test [4] is recorded as “significantly lesser rise in glucose appearance in bloodstream”. In the test on systolic blood pressure [5], the “SBP change from baseline” value is listed as “decrease in SBP from baseline”. The “CRP Modulation” value with C-reactive protein (salt 38 mg/day), with C-reactive protein (salt 76 mg/day) and in the test with C-reactive protein (salt 228 mg/day) was “**” in each case. In addition, the “Δ OD units after 4 wks” value was 33 OD units with C-reactive protein (salt 38 mg/day), −145 OD units in the test on C-reactive protein (salt 76 mg/day) and −11.3 OD units in the test on C-reactive protein (salt 228 mg/day). Also, the “insulin, control versus arm alone, Student's t test” value in the test on insulin (84 mg HCA per day) is listed as “at the margin of significance”. Also, in the test on insulin (all KMgHCA groups (14, 28, 84 mg HCA per day), not significant using ANOVA), the “average insulin concentrations vs control” value was “lower”.
